# Several values for one entry are separate records, joined by “and”; a condition that tells them apart may be missing. Equal entries are not always repeated.
# Experiments:
# [1] = Accelerating rate calorimetry (ARC) study, heat-wait-search mode; details: for Onset temperature of exotherm / Onset of exothermic activity: HWS mode, adiabatic, air, titanium bomb; for ΔT adiabatic / Adiabatic Temperature Rise (phi corrected): phi factor 1.6684
# [2] = Time to maximum rate (TMR) estimated from phi factor corrected ARC data; type: physicochemical
# Excerpt: Test data obtained from the ARC can be used to estimate the self-accelerating decomposition temperature of a sample (J. K. Wilberforce, “The Use of the Accelerating Rate calorimeter to determine the SADT of organic peroxides,” Columbia Scientific Industries, Milton Keynes; Harold G. Fisher and David D. Goetz, “Determination of self-accelerating decomposition temperature using the accelerating rate calorimeter,” J. Loss Prev. Process Ind., 1991, Vol 4., 305-316). Time to maximum rate (TMR) is defined as the amount of time that is needed for a reaction to reach its maximum self-heating rate or pressure rate in a thermal runaway reaction. TMR data was extracted from the phi factor corrected test data and a plot of Ln(TMR) against −1000/T was generated (FIG. 4).
# The following equation was taken from FIG. 4 to allow the determination of the time to maximum rate as a function of temperature: Ln(TMR(s))=−16.389*(−1000/(T(K)))−29.262 The TMR increases as the batch temperature decreases. The measured exotherm was used to estimate the TMR. The results are provided only as a reference, as it is based on a single ARC test and not a detailed kinetic study (FIG. 5).
# [3] = Effect of pH on solubility in water (HPLC of supernatant); type: physicochemical
# Description: To further purify N^6-((2-azidoethoxy)carbonyl)-L-lysine (Formula (VIa)), a suspension of N^6-((2-azidoethoxy)carbonyl)-L-lysine (Formula (VIa)) in water was prepared, followed by addition of HC1 to form a solution. Neutralization of the resulting solution with ammonium hydroxide reprecipitates the product and further purges the material of residual impurities, which remain in solution. In order to improve product yield, the effect of pH on the solubility of N^6-((2-azidoethoxy)carbonyl)-L-lysine (Formula (VIa)) was examined. Briefly, this study involved suspending N^6-((2-azidoethoxy)carbonyl)-L-lysine (Formula (VIa)) in water, progressively basifying the mixture, and determining the amount of N^6-((2-azidoethoxy)carbonyl)-L-lysine (Formula (VIa)) in the supernatant as a function of pH.
# N^6-((2-azidoethoxy)carbonyl)-L-lysine (Formula (VIa)) (0.95 g) was charged into a 20 mL glass scintillation vial along with water (7.2 g). The resulting suspension was thoroughly mixed on a vortex apparatus for 60 seconds, then allowed to settle for 5 minutes. The pH of the supernatant was measured at 4.44 and an aliquot was taken and diluted with HPLC eluent (H2O:CH3CN 1:1, 0.1% TFA). The sample was analyzed by HPLC (column: ACE Excel 3 Super C18, 4.6×150 mm, 3.0 μm, flow rate: 1.2 mL/min, phase A: 0.1% TFA in water, phase B: 0.1% TFA in acetonitrile) and the content of N^6-((2-azidoethoxy)carbonyl)-L-lysine (Formula (VIa)) was calculated based on HPLC analysis of Formula (VIa) standards.
# The contents of the scintillation vial were basified by addition of a drop of 28-30% ammonium hydroxide, and the suspension was vortexed, allowed to decant, and the supernatant was again sampled and analyzed by HPLC.
smiles,measurement,setting,value
CC(C)(C)OC(=O)N[C@@H](CCCCNC(=O)OCCN=[N+]=[N-])C(=O)OC(C)(C)C [Formula (IIIa)],Maximum pressure of test,[1],157.1 Bar gauge
same,Maximum pressure rate of test,[1],2.756 Bar min^−1
same,Maximum self-heating rate of test,[1],2.10 K min^−1
same,Temperature at maximum pressure rate,[1],208.5 °C
same,Temperature at maximum self-heat rate,[1],211.5 °C
same,Final temperature of exotherm / End of exothermic activity,[1]; 1st exotherm,100.79 °C
same,ΔT,[1]; 1st exotherm,0.65 °C
same,Onset temperature of exotherm / Onset of exothermic activity,[1]; 1st exotherm,100.14 °C
same,ΔT adiabatic / Adiabatic Temperature Rise (phi corrected),[1]; 1st exotherm,1.08 °C
same,ΔH reaction,"[1]; 1st exotherm, sample heat capacity estimated 2.10",−2.27 Joule/gram
same,Onset temperature of exotherm / Onset of exothermic activity,[1]; 2nd (major) exotherm,160.5 °C and 160.48 °C
same,Final temperature of exotherm / End of exothermic activity,[1]; 2nd exotherm,227.19 °C
same,ΔT,[1]; 2nd exotherm,66.71 °C
same,ΔT adiabatic / Adiabatic Temperature Rise (phi corrected),[1]; 2nd exotherm,111.29 °C
same,ΔH reaction,"[1]; 2nd exotherm, sample heat capacity estimated 2.10",−233.71 Joule/gram
same,Heat of reaction (exothermic),[1]; Exotherm 1,-2.27 J/g
same,Heat of reaction (exothermic),[1]; Exotherm 2,-233.71 J/g
same,ΔH reaction,[1]; Value column (both exotherms together),−235.99 Joule/gram
same,non-condensable gas remained in the bomb after completion of the test,[1]; after cooling to near ambient temperature at 30.7° C.,35.5 Bar gauge
same,Total heat released during the ARC test (all exotherms),[1]; all exotherms,-235.98 J/g
same,maximum pressure rate,[1]; at 208.5° C.,2.756 bar/min
same,maximum self-heat rate recorded,[1]; at 211.5° C.,2.098 K/min
same,thermal hazard in preparing the compound,[1]; conclusion from ARC and TMR data,no significant thermal hazard
same,Maximum temperature of test,[1]; test stopped by pressure trip,379.2 °C
same,total heat of the two exotherms,[1]; two exotherms,236.0 J/g
same,Time to maximum rate (TMR),[2]; 122.0 ° C.,48.3 h
same,Time to maximum rate (TMR),[2]; 129.0 ° C.,23.5 h
same,Time to maximum rate (TMR),[2]; 140.0 ° C.,7.9 h
same,Time to maximum rate (TMR),[2]; 160.0 ° C. (onset temperature of 2nd exotherm),1.3 h
"[N-]=[N+]=NCCOC(=O)NCCCC[C@H](N)C(=O)O [Formula (VIa), N^6-((2-azidoethoxy)carbonyl)-L-lysine]",Amount of Formula (VIa) in supernatant,"[3]; Supernatant 1, pH 4.44, 0.95 g suspended in 7.2 g water",36 mg
same,Amount of Formula (VIa) in supernatant,"[3]; Supernatant 2, pH 8.13, basified with ammonium hydroxide",37 mg
same,Amount of Formula (VIa) in supernatant,"[3]; Supernatant 3, pH 8.58",38 mg
same,Amount of Formula (VIa) in supernatant,"[3]; Supernatant 4, pH 8.73",40 mg
same,Amount of Formula (VIa) in supernatant,"[3]; Supernatant 5, pH 8.86",42 mg
same,Amount of Formula (VIa) in supernatant,"[3]; Supernatant 6, pH 9.00",44 mg
same,Amount of Formula (VIa) in supernatant,"[3]; Supernatant 7, pH 9.26",44 mg
same,amount of product in supernatant of a saturated aqueous solution,[3]; pH range from 4 to 8,roughly the same amount of product in its supernatant

# — US12577197B2, “Methods of preparing N6-((2-azidoethoxy)carbonyl)lysine” (SANOFI, priority 2019, dated 2026)
